Patent US11091447B2, “UBE2K modulators and methods for their use” (Berg LLC, priority 2020, dated 2021)
Values belong to the molecule of their own block, whether it stands above or below them.

Tests used:
MIA PaCa-2 cells = experiment: Cellular viability assay (Cell Titer Fluor); assay type: cell-based; details: Homo sapiens, MIA PaCa-2, 72 h, 72 hours incubation
Experimental: Cell viability were performed using the Cell Titer Fluor™ Assays (Promega G6080). MIA PaCa-2 cells are grown in DMEM media with 10% FBS, 1% Pen/Strep/Amphotericin B. Cells are trypsinized and counted using the Nexcelom cellometer. 5,000 cells/100 μl are plated per well in Greiner black/clear 96-well plates. Cells should be within 10 passages of stock vial for use in workflow. Three distinct lineages of these cells are cultured in parallel for multiple passages and 5 full plates of each lineage are seeded for one run. Small molecule compounds are provided as 100 mM stock solutions in DMSO. Dilution series plates are prepared using 1:3 dilution to achieve a 7 point concentration on a half log scale. After addition of compounds, cells are incubated 37° C., 5% CO2 for 72 hours.
For each test compound condition, triplicate technical replicates are used. For each reference compound, duplicate technical replicates are used. At the end of the 72-hour incubation, spent media is discarded. Then, 100 μl of GF-AFC diluted in DMEM (serum and phenol red-free) is added at 1:2000 concentration (5 μl/10 ml). Cells are incubated with reaction buffer for 1 h at 37° C. Fluorescence is then read on the plate reader with excitation wavelength of 390 nm and emission wavelength of 505 nm. All raw data are analyzed on Microsoft Excel 2010 and normalized to the DMSO vehicle control. Relative results are copied into GraphPad Prism for non-linear regression analysis and determination of IC50 and other dose curve parameters (min, max, Hill slope, etc.) using the log (inhibitor) vs. response equation. Values are as follows: A represents an IC50 of <[…], B represents an IC50 of 1 mM to 10 mM, C represents an IC50 of >10 mM.

K-562 tumor grafts = experiment: Tumor growth inhibition in K-562 murine xenograft model; assay type: in vivo, Mouse (Mus musculus); details: bid., p.o., K-562 xenograft, SCID Bg mice
Experimental: K-562 cancer cell line sourced from American Type Culture Collection (ATCC), USA. Cells were grown in IMDM medium (Sigma, Cat #30-2005) supplemented with 10% FBS (Invitrogen, Cat #10438-026), and 1% penicillin streptomycin (Invitrogen, Cat #15140-122). To establish xenograft, the cells were harvested by trypsinization when they reach around 70 to 80% confluence and 5 million K-562 cells were suspended in 200 μL of serum-free medium and mixed at 1:1 ratio with matrigel before implanting subcutaneously into the dorsal right flank of SCID Bg mice using a 1 mL BD syringe attached to a 24-gauge needle.
K-562 tumor grafts were measured after 10 days of cell inoculation once they became palpable. When the average tumor volume reached around 85 mm^3, animals were dosed after randomization into different treatment groups keeping tumor volume and number of animals in such a way so that the average tumor volume of each group remained same across the groups.
Compounds were formulated in 0.5% CMC+0.1% Tween 80 and given for 12 consecutive days BID with 8 hour gaps.

[1] = tested on: MV.4.11 cell (B myelomonocytic leukemia) line derived xenograft; experiment: Anti-tumor efficacy in MV.4.11 cell line derived xenograft model; assay type: in vivo; details: MV.4.11 xenograft, nude mice
Experimental: Nude mice were implanted with 5×10^6 cells MV.4.11 cells subcutaneously in the right flank region. Mice were randomized into 3 groups (8 mice each) on day 12 post cells implantation. Vehicle control was administered with formulation of test compound and treatment group was administered with compound 131 at doses 75 and 150 mg/kg orally as a suspension in 0.1% Tween-80+0.5% CMC (carboxymethyl cellulose) twice daily (b.i.d) for 24 days. Tumor measurements and body weight were recorded thrice weekly during the study period till study completion (day 24).

IC50 (MIA PaCa-2 cells): < 1000 nM
Structure (SMILES): COc1ccccc1-c1nc(CNC(=O)c2ccccc2OC(F)F)n[nH]1 [Compound 126, 2-(difluoromethoxy)-N-((5-(2-methoxyphenyl)-1H-1,2,4-triazol-3-yl)methyl) benzamide]
% Tumor Growth Inhibition (TGI) on day 3 (K-562 tumor grafts; 75 mg/kg/dose): 41%
% Tumor Growth Inhibition (TGI) on day 5 (K-562 tumor grafts; 75 mg/kg/dose): 32%
% Tumor Growth Inhibition (TGI) on day 8 (K-562 tumor grafts; 75 mg/kg/dose): 27%
% Tumor Growth Inhibition (TGI) on day 10 (K-562 tumor grafts; 75 mg/kg/dose): 27%
% Tumor Growth Inhibition (TGI) on day 12 (K-562 tumor grafts; 75 mg/kg/dose): 36%
% Tumor Growth Inhibition (TGI) on day 3 (K-562 tumor grafts; 200 mg/kg/dose): 55%
% Tumor Growth Inhibition (TGI) on day 5 (K-562 tumor grafts; 200 mg/kg/dose): 51%
% Tumor Growth Inhibition (TGI) on day 8 (K-562 tumor grafts; 200 mg/kg/dose): 51%
% Tumor Growth Inhibition (TGI) on day 10 (K-562 tumor grafts; 200 mg/kg/dose): 43%
% Tumor Growth Inhibition (TGI) on day 12 (K-562 tumor grafts; 200 mg/kg/dose): 44%

IC50 (MIA PaCa-2 cells): < 1000 nM
Structure (SMILES): COc1ccc(F)cc1-c1nc(CNC(=O)c2cccc3c2OC(F)(F)O3)n[nH]1 [Compound 131]
tumor growth inhibition ([1]; 75 mg/kg orally twice daily (b.i.d) for 24 days): 73.6%
tumor growth inhibition ([1]; 150 mg/kg orally twice daily (b.i.d) for 24 days): 86.3%
